Where a name gives a salt, the structure may show the parent alone. Read-outs that look alike come from different tables or passages of the source.
System: endosomal acidification in Vero cells
Test: cells
Format: cell-based
Settings: for inhibition at 40 µM: Chlorocebus sabaeus, read-out: Percent Inhibition (%) of endosomal acidification
Description: Inhibition of endosomal acidification was measured using LysoTracker Red DND-99 (ThermoFisher). […] Data were plotted using Prism 9 (GraphPad).

[1] = Vero cells, 40 μM, singlet (n=1)

Structure (SMILES)	inhibition at 40 µM [1]	other results
C=CC(C)(O)CCC=C(C)CCC=C(C)C (mixture of isomers) [NEROLIDOL]	66%	
CCCCCCCCCc1ccc(O)cc1 [4-NONYLPHENOL]	79%	
CC(C)c1ccc2c(c1)CC[C@H]1[C@](C)(CN)CCC[C@]21C [18-AMINOABIETA-8,11,13-TRIENE SULFATE]	67%	
CC(=O)c1ccc2c(c1)N(CCCN(C)C)c1ccccc1S2 [ACEPROMAZINE MALEATE]	67%	
CC(=O)c1ccc2c(c1)N(CCCN1CCN(CCO)CC1)c1ccccc1S2.O=C(O)/C=C\C(=O)O.O=C(O)/C=C\C(=O)O [ACETOPHENAZINE MALEATE]		Percent Inhibition (%) of endosomal acidification [1]: 62%
C[n+]1c2cc(N)ccc2cc2ccc(N)cc21.[Cl-] [ACRIFLAVINIUM HYDROCHLORIDE]		Percent Inhibition (%) of endosomal acidification [1]: 51%
CCCCCCc1ccc(O)cc1O.Nc1c2ccccc2nc2ccccc12 [ACRISORCIN]		Percent Inhibition (%) of endosomal acidification [1]: 50%
CCCCCCCCCCCCCCCCC(C(=O)O)C(O)(CC(=O)O)C(=O)O (stereo not drawn) [AGARIC ACID]		Percent Inhibition (%) of endosomal acidification [1]: 89%
CCCCC(CC)CNC(=N)NC(=N)NCCCCCCNC(=N)NC(=N)NCC(CC)CCCC (stereo not drawn) [ALEXIDINE HYDROCHLORIDE]	95%	
Nc1c2ccccc2nc2ccccc12 [AMINACRINE]	69%	
CN(C)CCC=C1c2ccccc2CCc2ccccc21 [AMITRIPTYLINE HYDROCHLORIDE]	53%	
CCOC(=O)C1=C(COCCN)NC(C)=C(C(=O)OC)C1c1ccccc1Cl (stereo not drawn) [AMLODIPINE BESYLATE]	76%	
C[C@@H]1[C@H](O)[C@@H](C)/C=C/C=C/C=C/C=C/C=C/C=C/C=C/[C@H](O[C@@H]2O[C@H](C)[C@@H](O)[C@H](N)[C@@H]2O)C[C@@H]2O[C@](O)(C[C@@H](O)C[C@@H](O)[C@H](O)CC[C@@H](O)C[C@@H](O)CC(=O)O[C@H]1C)C[C@H](O)[C@H]2C(=O)O [AMPHOTERICIN B]	60%	
COc1cc(NS(C)(=O)=O)ccc1Nc1c2ccccc2nc2ccccc12 [AMSACRINE]	87%	
CC(=O)O[C@@H]1CC[C@@]2(C)[C@@H](CC[C@@H]3[C@@H]2CC[C@]2(C)C(=O)CC[C@@H]32)C1 [AN[…]]	50%	
C[C@@H](O[C@H]1OCCN(Cc2n[nH]c(=O)[nH]2)[C@H]1c1ccc(F)cc1)c1cc(C(F)(F)F)cc(C(F)(F)F)c1 [APREPITANT]	62%	
CCCCC/C=C\C/C=C\C/C=C\C/C=C\CCCC(=O)O [ARACHIDONIC ACID]	64%	
COc1ccc(CCN2CCC(Nc3nc4ccccc4n3Cc3ccc(F)cc3)CC2)cc1 [ASTEMIZOLE]	50%	
CN1CCCC(n2nc(Cc3ccc(Cl)cc3)c3ccccc3c2=O)CC1 (stereo not drawn) [AZELASTINE HYDROCHLORIDE]	59%	
Cc1c(-c2ccc(O)cc2)n(Cc2ccc(OCCN3CCCCCC3)cc2)c2ccc(O)cc12 [BAZEDOXIFENE ACETATE]	89%	
CCOC(=O)[C@H](CCc1ccccc1)N[C@H]1CCc2ccccc2N(CC(=O)O)C1=O [BENAZEPRIL HYDROCHLORIDE]	64%	
CN1[C@@H]2CC[C@H]1C[C@@H](OC(c1ccccc1)c1ccccc1)C2 [BENZTROPINE MESYLATE]	50%	
CN(C)CCCOc1nn(Cc2ccccc2)c2ccccc12 [BENZYDAMINE HYDROCHLORIDE]	58%	
CC(C)COCC(CN(Cc1ccccc1)c1ccccc1)N1CCCC1 (stereo not drawn) [BEPRIDIL HYDROCHLORIDE]	71%	

Structure (SMILES)	inhibition at 40 µM [1]	other results
C=C(c1ccc(C(=O)O)cc1)c1cc2c(cc1C)C(C)(C)CCC2(C)C [BEXAROTENE]	64%	
c1ccc(-c2ccc(C(c3ccccc3)n3ccnc3)cc2)cc1 (stereo not drawn) [BIFONAZOLE]	50%	
O=C(CCCN1CCC(O)(c2ccc(Br)cc2)CC1)c1ccc(F)cc1 [BROMPERIDOL]	50%	
C[C@@]12C(=O)OC(=O)[C@]1(C)[C@H]1CC[C@@H]2O1 [CANTHARIDIN]	65%	
CC(C)NCC(O)COc1cccc2[nH]c3ccccc3c12 (stereo not drawn) [CARAZOLOL]	54%	
COc1ccccc1OCCNCC(O)COc1cccc2[nH]c3ccccc3c12 (stereo not drawn) [CARVEDILOL]	55%	
CC1=C(O)C(=O)C=C2C1=CC=C1[C@@]2(C)CC[C@@]2(C)[C@@H]3C[C@](C)(C(=O)O)CC[C@]3(C)CC[C@]12C [CELASTROL]	92%	
CCCCCCCCCCCCCCCC[N+](C)(C)C [CETRIMONIUM BROMIDE]	79%	
COc1cc(-c2ccc(/N=N/c3ccc4c(S(=O)(=O)O)cc(S(=O)(=O)O)c(N)c4c3O)c(OC)c2)ccc1/N=N/c1ccc2c(S(=O)(=O)O)cc(S(=O)(=O)O)c(N)c2c1O [CHICAGO SKY BLUE]	54%	
CN(C)CCCN1c2ccccc2Sc2ccc(Cl)cc21 [CHLORPROMAZINE]	65%	
CN(C)CC/C=C1/c2ccccc2Sc2ccc(Cl)cc21 [CHLORPROTHIXENE HYDROCHLORIDE]	57%	
C[C@@H](NCCCc1cccc(C(F)(F)F)c1)c1cccc2ccccc12 [CINACALCET HYDROCHLORIDE]	91%	
CC(C)/N=c1\cc2n(-c3ccc(Cl)cc3)c3ccccc3nc-2cc1Nc1ccc(Cl)cc1 [CLOFAZIMINE]	80%	
CCN(CC)CCOc1ccc(C(=C(Cl)c2ccccc2)c2ccccc2)cc1 [CLOMIPHENE CITRATE]	69%	
CN(C)CCCN1c2ccccc2CCc2ccc(Cl)cc21 [CLOMIPRAMINE HYDROCHLORIDE]	83%	
Cc1cc(C(C#N)c2ccc(Cl)cc2)c(Cl)cc1NC(=O)c1cc(I)cc(I)c1O (stereo not drawn) [CLOSANTEL]	56%	
CC1CC(OC(=O)C(O)c2ccccc2)CC(C)(C)C1 (stereo not drawn) [CYCLANDELATE]	52%	
CN1CCC(=C2c3ccccc3C=Cc3ccccc32)CC1 [CYPROHEPTADINE HYDROCHLORIDE]	67%	
CCCCCCCCCCCCCCCC[N+](C)(C)Cc1ccccc1 [C[…]]	90%	
C=CC(C1=CC(=O)C=CC1=O)c1ccccc1 (stereo not drawn) [DALBERGIONE]	85%	
CN(C)[C@@H](CCOc1cccc2ccccc12)c1ccccc1 [DAPOXETINE HYDROCHLORIDE]	91%	
CNCCCN1c2ccccc2CCc2ccccc21 [DESIPRAMINE HYDROCHLORIDE]	50%	
Oc1ccc(Cl)cc1Cc1cc(Cl)ccc1O [DICHLOROPHEN]	86%	
C[C@@H]1CC[C@@]2(OC1)O[C@H]1[C@@H](O)[C@H]3[C@@H]4CC[C@H]5C[C@@H](O[C@@H]6O[C@H](CO)[C@H](O[C@@H]7O[C@H](CO)[C@@H](O)[C@H](O[C@@H]8OC[C@@H](O)[C@H](O)[C@H]8O)[C@H]7O[C@@H]7O[C@H](CO)[C@H](O)[C@H](O[C@@H]8O[C@H](CO)[C@@H](O)[C@H](O)[C@H]8O)[C@H]7O)[C@H](O)[C@H]6O)[C@H](O)C[C@]5(C)[C@H]4CC[C@]3(C)[C@H]1[C@@H]2C [DIGITONIN]	79%	

Structure (SMILES)	inhibition at 40 µM [1]	other results
Cc1c(O)c(O)cc2c1CC=C1[C@@]2(C)CC[C@@]2(C)[C@@H]3C[C@](C)(C(=O)O)CC[C@]3(C)CC[C@]12C [DIHYDROCELASTROL]	96%	
O=C(Nc1ccccc1)OCC(CN1CCCCC1)OC(=O)Nc1ccccc1 (stereo not drawn) [DIPERODON HYDROCHLORIDE]	54%	
CCN(CC)CCOC(=O)C(c1ccccc1)C1CCCCC1 (stereo not drawn) [DROFENINE HYDROCHLORIDE]	58%	
CCCCc1oc2ccc(NS(C)(=O)=O)cc2c1C(=O)c1ccc(OCCCN(CCCC)CCCC)cc1 [DRONEDARONE HYDROCHLORIDE]	85%	
CNCC[C@H](Oc1cccc2ccccc12)c1cccs1 [DULOXETINE HYDROCHLORIDE]		inhibition at 40 µM (Vero): 59%
Clc1ccc(COC(Cn2ccnc2)c2ccc(Cl)cc2Cl)cc1 (stereo not drawn) [ECONAZOLE NITRATE]	76%	
CCN(CC)C(C)CN1c2ccccc2Sc2ccccc21 (stereo not drawn) [ETHOPROPAZINE HYDROCHLORIDE]	70%	
CC(C)=CCC/C(C)=C/CC/C(C)=C/CO [FARNESOL]	76%	
CC(NCCC(c1ccccc1)c1ccccc1)c1ccccc1 (stereo not drawn) [FENDILINE HYDROCHLORIDE]	73%	
CNCCC(Oc1ccc(C(F)(F)F)cc1)c1ccccc1 (stereo not drawn) [FLUOXETINE]	67%	
OCCN1CCN(CCCN2c3ccccc3Sc3ccc(C(F)(F)F)cc32)CC1 [FLUPHENAZINE HYDROCHLORIDE]	78%	
CC(C)=CCC[C@]1(C)C=Cc2c(O)c3c(c(CC=C(C)C)c2O1)O[C@]12C(=C[C@@H]4C[C@H]1C(C)(C)O[C@@]2(C/C=C(/C)C(=O)O)C4=O)C3=O [GAMBOGIC ACID]	90%	
CN(C)c1ccc(C(=C2C=CC(=[N+](C)C)C=C2)c2ccc(N(C)C)cc2)cc1 [GENTIAN VIOLET]	95%	
Cc1cc2c(C(C)C)c(O)c(O)c(C=O)c2c(O)c1-c1c(C)cc2c(C(C)C)c(O)c(O)c(C=O)c2c1O [GOSSYPOL]	80%	
Cc1ccc(C(C)C)cc2c(C)ccc1-2 [GUAIAZULENE]	64%	
CCCCC(CC)CN1CN(CC(CC)CCCC)CC(C)(N)C1 (stereo not drawn) [HEXETIDINE]	84%	
CCN(CC)CCNc1ccc(CO)c2sc3ccccc3c(=O)c12 [HYCANTHONE]	69%	
COC1=C(OC)C(=O)C(CCCCCCCCCCO)=C(C)C1=O [IDEBENONE]	63%	
CN(C)CCCN1c2ccccc2CCc2ccccc21 [IMIPRAMINE HYDROCHLORIDE]	54%	
CC1Cc2ccccc2N1NC(=O)c1ccc(Cl)c(S(N)(=O)=O)c1 (stereo not drawn) [INDAPAMIDE]	101%	
CC1(C)C=Cc2c(c3c(c4c(=O)c(-c5ccc(O)c(O)c5)coc24)OC(C)(C)CC3)O1 [ISOPOMIFERIN]		Percent Inhibition (%) of endosomal acidification [1]: 85%
Clc1ccc(C(Cn2ccnc2)OCc2c(Cl)cccc2Cl)c(Cl)c1 (stereo not drawn) [I[…]]	79%	
C#C[C@]1(O)CC[C@H]2[C@@H]3CCC4=CCCC[C@@H]4[C@H]3CC[C@@]21C [LYNESTRENOL]	86%	
CNCCCC12CCC(c3ccccc31)c1ccccc12 [MAPROTILINE HYDROCHLORIDE]		inhibition at 40 µM (Vero): 60%
